Earlier results, collected in patent publication US20120295320A1, “APPARATUS AND METHOD FOR TREATMENT OF MICROORGANISMS DURING PROPAGATION, CONDITIONING AND FERMENTATION USING STABILIZED CHLORINE DIOXIDE/SODIUM CHLORITE WITH HOPS ACID EXTRACTS” (RESONANT BIOSCIENCES, LLC, priority 2010, published 2012).

System: Weisella confusa
Conditions: background statement, fermentation mixture

With Virginiamycin as the substance, how does the “concentration required to inhibit growth of Weisella confusa” value read?
The value was “over 25 mg/L”.
